Test results as given in PubChem BioAssay (NCI).
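Briefly, cells in 96-well plates were exposed to five compound concentrations for 48 h, and endpoints were estimated by linear interpolation. Abbreviation: GI50, concentration required for 50% inhibition of growth. TGI denotes the concentration required for complete inhibition of growth.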

How the values were obtained:
Assay in all cases: DTP human tumour cell line panel, 48 h
[1] = system: RXF 393 renal
[2] = system: SF-268 CNS
[3] = system: SF-539 CNS
[4] = system: OVCAR-4 ovarian
[5] = system: OVCAR-5 ovarian
[6] = system: CCRF-CEM leukemia
[7] = system: SW-620 colon
[8] = system: A498 renal
[9] = system: LOX IMVI melanoma
[10] = system: MALME-3M melanoma

Row | SMILES | GI50 [1] | TGI [1] | GI50 [2] | TGI [2] | GI50 [3] | TGI [3] | GI50 [4] | TGI [4] | GI50 [5] | TGI [5] | GI50 [6] | TGI [6] | GI50 [7] | TGI [7] | TGI [8] | TGI [9] | TGI [10] | GI50 [8] | GI50 [9] | GI50 [10]
1 | OCCCN=NNc1ccc(-c2nc3ccccc3[nH]2)cc1 | 4.06 µM | 18 µM | 6.16 µM | 32.1 µM | 5.97 µM | 28.4 µM | 3.78 µM | > 100 µM | > 100 µM | > 100 µM | 0.644 µM | > 100 µM | 3.04 µM | > 100 µM | – | – | – | – | – | –
2 | N#CC(C(=O)/C(=N\Nc1nc(=S)[nH]n1N)C(C#N)c1ccc(Cl)cc1)c1ccc(Cl)cc1 (stereo not given) | – | > 100 µM | – | > 100 µM | – | > 100 µM | – | > 100 µM | – | > 100 µM | – | – | – | > 100 µM | > 100 µM | > 100 µM | > 100 µM | – | – | –
3 | O=C(CC1(O)C(=O)Nc2ccccc21)c1ccccc1Cl (stereo not given) | – | > 100 µM | – | > 100 µM | – | > 100 µM | – | > 100 µM | – | > 100 µM | – | – | – | > 100 µM | > 100 µM | > 100 µM | > 100 µM | – | – | –
4 | COc1cc(C(=O)/C=C/c2cc(C(=O)c3cc(OC)c(OC)c(OC)c3)ccc2OC)ccc1N | – | – | – | – | 1.53 µM | 3.98 µM | 0.982 µM | > 100 µM | – | – | 0.35 µM | > 100 µM | 0.374 µM | > 100 µM | 5.92 µM | 2.03 µM | 4.16 µM | 2.14 µM | 0.74 µM | 1.47 µM
5 | Cc1ccc(-c2nc(SCC(=O)O)n[nH]2)cc1 | – | – | – | > 100 µM | – | > 100 µM | – | > 100 µM | – | > 100 µM | – | > 100 µM | – | > 100 µM | > 100 µM | – | > 100 µM | – | – | –
6 | COc1cc(/C=C/c2cc(/C=C/c3ccc(O)c(OC)c3)n(-c3c(C)cccc3C)c(=O)n2)ccc1O | – | – | 1.19 µM | 11.5 µM | – | – | 0.798 µM | 8.41 µM | 2.65 µM | 9.59 µM | – | – | – | – | 6.08 µM | – | – | 2.4 µM | – | –
7 | CS(=O)CCCCCN=C=S (stereo not given) | 3.37 µM | 9.45 µM | 4.06 µM | 17.4 µM | – | – | 5.11 µM | 22.8 µM | 10.6 µM | 25.5 µM | 4.1 µM | 16.3 µM | 4.1 µM | 15.9 µM | 23.5 µM | 10.3 µM | 18.6 µM | 10.4 µM | 0.782 µM | 4.12 µM
8 | NS(=O)(=O)c1cc2c(cc1Cl)NC(Cc1ccccc1)NS2(=O)=O (stereo not given) | – | > 100 µM | – | > 100 µM | – | > 100 µM | – | > 100 µM | – | > 100 µM | – | – | – | > 100 µM | > 100 µM | > 100 µM | > 100 µM | – | – | –
9 | COc1cccc(C2C(C#N)=C(N)Oc3cc(N)ccc32)c1 (stereo not given) | – | – | 1.57 µM | > 100 µM | 0.343 µM | 1.37 µM | 5.14 µM | > 100 µM | 1.43 µM | > 100 µM | 0.32 µM | – | 0.312 µM | > 100 µM | – | > 100 µM | > 100 µM | 0.203 µM | 0.506 µM | 0.632 µM
10 | CN(C)c1ccc(C(=C2C=CC(=[N+](C)C)C=C2)c2ccc(N(C)C)cc2)cc1 (tested in a mixture with another compound) | 0.108 µM | 0.871 µM | – | 1.29 µM | 0.0643 µM | 0.748 µM | 0.183 µM | 1.32 µM | 0.559 µM | 1.77 µM | 0.231 µM | 19.5 µM | 0.0476 µM | 1.35 µM | 0.343 µM | – | 0.56 µM | 0.0607 µM | – | 0.127 µM
11 | COC(=O)c1ccc2c(c1)nc(-c1cc3ccccc3[nH]c1=O)n2-c1cc(C(C)(C)C)[nH]n1 | 2.83 µM | > 29.8 µM | 2.24 µM | > 95.9 µM | > 20.3 µM | > 100 µM | > 100 µM | > 100 µM | – | – | 0.853 µM | > 100 µM | – | – | > 87.7 µM | – | > 100 µM | 3.99 µM | – | 2.63 µM
12 | CCOc1ccc([C@@H]2[C@@H](Oc3ccccc3)C(=O)N2c2cc(OC)c(OC)c(OC)c2)cc1 | 0.0446 µM | > 100 µM | 0.0975 µM | > 100 µM | – | – | 0.928 µM | > 100 µM | 0.47 µM | > 100 µM | 0.048 µM | > 100 µM | 0.0536 µM | > 100 µM | 0.0853 µM | > 100 µM | > 100 µM | 0.0205 µM | 0.0642 µM | > 100 µM
13 | N/N=C1\C(=O)N(C2CCCCC2)C(=O)C1C(=O)NC1CCCCC1 (stereo not given) | – | – | – | > 100 µM | – | > 100 µM | – | > 100 µM | – | > 100 µM | – | > 100 µM | – | > 100 µM | > 100 µM | > 100 µM | > 100 µM | – | – | –
14 | CCCCCCCC/C=C/CCCCCCCCC1=NCCN1CCO | 3.88 µM | 19.6 µM | 3.66 µM | 16.2 µM | 1.64 µM | 3.02 µM | 7 µM | 30.7 µM | 10.8 µM | 24 µM | 1.91 µM | 4.96 µM | 1.71 µM | 3.24 µM | 15.5 µM | – | 17.3 µM | 2.34 µM | – | 5.08 µM
15 | COc1ccc(-c2ccc(/C=N/n3c(COc4ccccc4Cl)nn(CN4CCN(C)CC4)c3=S)o2)c([N+](=O)[O-])c1 | 10.4 µM | 25 µM | 17.5 µM | 45.1 µM | 19.7 µM | 39.2 µM | – | – | 21.6 µM | 46.6 µM | 21.7 µM | > 100 µM | – | – | – | – | 49.2 µM | – | – | 20.9 µM
16 | COC1=CC(O)(CC(N)=O)c2ccccc2C1=O (stereo not given) | – | > 100 µM | – | > 100 µM | – | – | – | > 100 µM | – | > 100 µM | – | > 100 µM | – | > 100 µM | > 100 µM | > 100 µM | > 100 µM | – | – | –
17 | CCCCCCCCCCCCCCCCCC1=NCCN1CS(=O)(=O)O | 15.4 µM | 35.6 µM | 13.9 µM | 30.2 µM | 19.4 µM | 46.8 µM | 14.9 µM | 33 µM | 15.4 µM | 32.7 µM | 3.96 µM | > 100 µM | 7.19 µM | 31.2 µM | 31 µM | 12.5 µM | – | 14.8 µM | 2.86 µM | –
